One data set relates to A2780. In words: Antiproliferative activity, sulphorhodamine B assay, 72 hours of treatment. In kind it is cell-based. The note with it: A2780 (ovary). The method, then:
(§1) The antiproliferative activity of the various compounds 1a-c (in both monotherapy and combined treatment) on the different tumour cell lines was evaluated by sulphorhodamine B assay after 72 hours of treatment, and the dose able to inhibit 50% of growth (IC50) was calculated for the monotherapy (the results are summarized in Table 1 and Table 3), while the Kern Index (KI) was determined as the synergism/antagonism […] index for the combined treatment (the results are depicted in FIG. 2).

The test system of data set [1] is ovarian cancer cells (A2780). Briefly: Cell cycle and apoptosis in ovarian cancer cells. Type of data set: cell-based.
The nature of data set [2]: In vivo plasma levels by HPLC after i.p. administration. More on the design: species or system nude mice. The note with it: for Plasma level: 5 hours after last administration, 5% DMSO, H2O. The method, then:
To evaluate the plasma levels of salt 1a, 4-oxo-4-HPR (120 mg/kg) and salt 1a (sodium 4-aminoxyacetate-4-HPR) (60 and 100 mg/kg) were administered i.p. to nude mice for 4 consecutive days (once a day), and the plasma levels were evaluated by HPLC 5 hours after the last administration (the results are summarized in Table 2).

Another data set has as its system T47-D. Briefly: Antiproliferative activity, sulphorhodamine B assay, 72 hours of treatment. In kind it is cell-based. The note with it: T47-D (breast). The method, then:
as §1

For another data set, the system named is IGROV-1. The data set is described as above. In kind it is cell-based, human. The note with it: IGROV-1 (ovary). The procedure: as §1
Another data set has as its system MDA-MB-231. Described as above. Type of data set: cell-based, human. The note with it: MDA-MB-231 (breast). The method, then: as §1
The next data set relates to BT-474. Described as above. In kind it is cell-based. Particulars: BT-474 (breast). The procedure: as §1
A further data set relates to JVM-2. Described as above. In kind it is cell-based. The note with it: JVM-2 (lymphoma). The method, then: as §1
Another data set concerns MESO. The description is as above. Type of data set: cell-based. The note with it: MESO (mesothelioma). The procedure:
as §1

A further data set deals with SK-N-BE. The description is as above. Type of data set: cell-based. The note with it: SK-N-BE (neuroblastoma). The method, then: as §1
For a further data set, the system named is SK-N-SH. The description is as above. The note with it: SK-N-SH (neuroblastoma). In kind it is cell-based. The method, then:
as §1

In the next data set the test system is SKOV-3. Described as above. Type of data set: cell-based. The note with it: SKOV-3 (ovary). The method, then:
as §1

For the next data set, the system named is Sk-N-5Y. Described as above. In kind it is cell-based. The note with it: Sk-N-5Y (neuroblastoma). The procedure:
as §1

For the next data set, the system named is STO. Described as above. Type of data set: cell-based, human. The note with it: STO (mesothelioma). The procedure: as §1
The test system of data set [3] is human mesothelioma (STO) cells. In words: In vivo antitumor activity, mesothelioma xenograft (s.c.). More on the design: species or system mice. Particulars: 30 and 60 mg/kg i.p., 5 days/week for 4 weeks. The method, then: As regards to mesothelioma, the mice were inoculated s.c. with STO cells, and treatment with the salt 1a began one day after tumor cell inoculation (doses: 30 and 60 mg/kg i.p.; 5 days/week for 4 weeks). The control mice were treated with the same solvent as used to dissolve the salt. The animals were examined twice a week to check their weight and any signs of toxicity. Tumour growth in the various groups (control and treated) was evaluated, and the differences were statistically analysed (the results are shown in FIG. 3a).

Data set [4] relates to ovarian cancer (IGROV-1) cells. In kind it is in vivo. The method, then:
For the ovarian model, nude mice were inoculated i.p. with IGROV-1 cells, and treatment with the salt 1a began one day after tumor cell inoculation (doses: 30, 60 and 90 mg/kg i.p.; 5 days/week for 4 weeks). The control mice were treated with the same solvent as used to dissolve the salt. The animals were examined twice a week to check their weight and any signs of toxicity. The survival time of the various groups (control and treated) was evaluated, and the differences were statistically analysed.

For data set [5], the system named is human breast cancer cells (MDA-MB-231). In words: In vivo antitumor activity, breast cancer model (mammary fat pad). The note with it: 90 mg/kg. The procedure:
As regards the breast cancer model, human breast cancer cells (MDA-MB-231) were inoculated into the mammary fat pad of NOD/SCID-gamma mice, and treatment with the salt 1a began one week after tumor cell inoculation (dose: 90 mg/kg; 4 days/week for 5 weeks). The animals were examined twice a week to check their weight and any signs of toxicity. Tumour growth in the various groups (control and treated) was evaluated, and the differences were statistically analysed.

A further data set has as its system ROS. In words: ROS generation, CM-H2DCFDA probe, FACS. In kind it is cell-based. The note with it: 5 hours of treatment. The method, then: (§2) As regards to the evaluation of the mechanism of action, ROS generation was determined after 5 hours of treatment with the use of the 5-(and -6)-chloromethyl-2′, 7′-dichlorodihydrofluorescein diacetate (CM-H2DCFDA) probe, while the cell cycle was evaluated by staining with propidium iodide. Cytofluorimetric analysis (FACS) was conducted in both cases.

The subject of a further data set is cell cycle. Briefly: Cell cycle, propidium iodide staining, FACS. In kind it is cell-based. The procedure: as §2
Data set [6] deals with tumour cell lines of different histotypes. In words: Antiproliferative activity of combined treatment, sulphorhodamine B assay, Kern Index. In kind it is cell-based. The note with it: 72 hours, preliminary. The procedure:
as §1

`CC(C=CC1=C(C)C(=NOCCN)CCC1(C)C)=CC=CC(C)=CC(=O)Nc1ccc(O)cc1` [Compound 1d, 9-[3-(2-Amino-ethoxyimino)-2,6,6-trimethyl-cyclohex-1-enyl]-3,7-dimethylnona-2,4,6,8-tetraenoic acid (4-hydroxy-phenyl)amide] registered a melting point of 134 °C. In the data set with A2780 (Homo sapiens), the IC50 worked out at 955 nM. In [1], the “Apoptotic activity (sub-G1 peak)” value was “apoptotic (sub-G1 peak)” and the Cell cycle arrest result is “induced a cycle arrest in G2-M”.
For the compound `CC1=C(/C=C/C(C)=C/C=C/C(C)=C/C(=O)Nc2ccc(O)cc2)C(C)(C)CCC1=O` [Compound 4-oxo-4-HPR, 4-oxo-N-(4-hydroxyphenyl)retinamide], in data set [2] (i.p. once a day for 4 days, 5% cremophor), the Plasma level is listed as 0.8 μM ± 0.4. For the same compound, in data set [2] (treated mice, i.p.), the “Accumulation of the compound in proximity to the inoculation site” value is given as “observed”.
For `CC1=C(/C=C/C(C)=C/C=C/C(C)=C/C(=O)Nc2ccc(O)cc2)C(C)(C)CCC1=NOCCCC(=O)O` [LOM1098], the IC50 is 3590 nM in the data set on A2780, 4.2 µM in the data set on T47-D, 3.54 µM in the data set on IGROV-1 and 4.26 µM in the data set on MDA-MB-231.
On the same counts, the results for `CCCCC(ON=C1CCC(C)(C)C(/C=C/C(C)=C/C=C/C(C)=C/C(=O)Nc2ccc(O)cc2)=C1C)C(=O)O` (centres unmarked) [LOM1133] are 2370 nM, 3 µM, 2.19 µM and 2.95 µM.
For the compound `CC1=C(/C=C/C(C)=C/C=C/C(C)=C/C(=O)Nc2ccc(O)cc2)C(C)(C)CCC1=NOCC(=O)[O-].[Na+]` [Salt 1a], the IC50 in the data set with A2780 turned out to be 2780 nM; in the data set on BT-474 it was 3.69 µM; in the data set with JVM-2 it was 1110 nM; in the data set on MESO, 1280 nM; in the data set on SK-N-BE, 1550 nM; with SK-N-SH, 1900 nM. Further, the IC50 in the data set with SKOV-3 stood at 5.96 µM; in the data set with Sk-N-5Y, 1300 nM; with T47-D, 3.95 µM; in the data set on IGROV-1, 3.82 µM; with MDA-MB-231, 3.97 µM; in the data set on STO it was 1480 nM. The Plasma level is on record as 60.3 μM ± 2.52 in data set [2] (60 mg/Kg i.p. once a day for 4 days) and 63.7 μM ± 2.08 in data set [2] (100 mg/Kg i.p. once a day for 4 days). The “Toxicity for the animals” value in data set [2] (daily doses of 60 and 100 mg/kg) is recorded as “does not possess high toxicity”. For the same compound, the “Solubility compared with the parent compound” value in data set [2] (from in vivo experiments in murine models) is listed as “far more soluble than the parent compound”. The “Plasma levels, times higher than 4-oxo-4-HPR” value in data set [2] (murine models, versus 4-oxo-4-HPR) is on record as “up to 60 times”. Further, the Tumour growth result is reported as “activity trend of the compound, although it did not reach statistical significance” in data set [3] and “reduced tumour growth” in [5] (MDA-MB-231, 4 days/week for 5 weeks, p=0.01). In addition, in [4] (IGROV-1 i.p., doses of 60 and 90 mg/kg i.p., 5 days/week for 4 weeks, p<0.01), the “Survival of the mice” value is reported as “significantly increased the survival”. Also, the Signs of toxicity entry in data set [4] (IGROV-1 model, 60 and 90 mg/kg) was “without any evident signs of severe toxicity”; in data set [5] (MDA-MB-231 model), “without evident signs of severe toxicity”. Besides, in the data set on ROS, the “ROS generation (pro-apoptotic activity)” value was “the generation of ROS”. In addition, the “Cell cycle arrest during the mitotic phase (antitubulin activity)” value with cell cycle was “the cell cycle arrest during the mitotic phase”. Moreover, the “Activity of combined treatment (Kern Index)” value in data set [6] (combined with 4-HPR), in [6] (combined with cisplatin) and in data set [6] (combined with paclitaxel) was “synergic activity” throughout.
